Marks after values point to notes of the source that are not given here. Starred links: 1 amine or outer side, 2 acyl side, 3 side chain; linkers in the order of their positions; H or OH if unused. Non-standard residues stand in square brackets, D forms with d. Residues, ends and D or L forms follow the SMILES beside them. No end group written: not given here. X3 = N[C@@H](Cc1ccccc1)CN(CC(=O)[*:2])[*:1]
Key:
NOP receptor = assay: NOP bias factor, G protein vs β-arrestin 2 (Black–Leff operational model); details: for BIAS FACTOR: supplementary CSV (molecular formula strings), repeats Tables 1–7 without confidence limits; for bias factor (CL95%), NOP: ΔΔlog(τ/KA) G protein minus β-arrestin 2, N/OFQ(1–13)-NH2 as standard unbiased ligand, positive = toward G protein, mean of at least five experiments
Text: The concentration–response curves of each compound were fitted to the Black–Leff operational model, described by Nagi and Pineyro[70] [drawing 3] where [A] is the agonist concentration, the maximal response of the system is given by Em, n is a fitting parameter for the slope, the affinity of the agonist is represented by the equilibrium dissociation constant of the agonist–receptor complex (KA), and the efficacy of the agonist is defined by τ. τ and KA are descriptive parameters of intrinsic efficacy and binding affinity and may be directly obtained by fitting the experimental data to the operational equation and can be expressed as “transduction coefficients” log(τ/KA). The relative efficiency of agonists producing activation of any pathways can thus be quantified with a “normalized” transduction coefficient, namely Δlog(τ/KA). Finally, the bias factors were calculated as difference between Δlog(τ/KA) values for a given agonist between the pathways (G protein and β-arrestin 2) [drawing 4]
Bias factors are expressed as the mean of at least five independent experiments, and CL95% are indicated. Biased factor is considered to be statistically different from 0 when 0 is not included in CL95%. α values have been statistically analyzed with one-way analysis of variance (ANOVA) followed by the Dunnett post hoc test for multiple comparisons; P values less than 0.05 were considered to be statistically significant.

[1] = biological target: T1, NOP receptor (NOP-RLuc/Gβ1-RGFP) (Homo sapiens, UniProt P41146); assay: NOP/G protein interaction, BRET assay in membranes; assay type: biochemical; details: for NOP/G protein pEC50 (CL95%): BRET, membranes (3 μg protein) from HEK293 cells co-expressing NOP-RLuc/Gβ1-RGFP, room temperature, mean of five independent experiments in duplicate, 95% confidence limits; for NOP/G protein CR (concentration ratio): ratio between EC50 of the ligand and that of the standard agonist N/OFQ(1–13)-NH2
T1 construct: expressed in transfected cells; host or cells: HEK293 (enriched plasma membranes)
T1 sequence (P41146 whole entry): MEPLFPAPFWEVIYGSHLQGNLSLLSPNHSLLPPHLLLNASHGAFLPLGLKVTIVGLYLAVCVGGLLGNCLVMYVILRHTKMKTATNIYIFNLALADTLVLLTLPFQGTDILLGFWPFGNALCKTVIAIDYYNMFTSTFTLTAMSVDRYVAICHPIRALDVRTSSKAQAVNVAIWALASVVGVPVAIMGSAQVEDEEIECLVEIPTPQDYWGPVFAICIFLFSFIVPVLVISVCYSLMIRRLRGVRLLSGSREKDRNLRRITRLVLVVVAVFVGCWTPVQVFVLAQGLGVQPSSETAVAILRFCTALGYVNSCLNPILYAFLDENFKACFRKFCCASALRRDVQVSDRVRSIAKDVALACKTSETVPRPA
Procedure: (§1) For this study, human embryonic kidney (HEK293) cells, permanently co-expressing the different pairs of fusion proteins NOP-RLuc/Gβ1-RGFP and NOP-RLuc/β-arrestin 2-RGFP, and SH-SY5Y cells stably, co-expressing the different pairs of fusion proteins mu-RLuc/Gβ1-RGFP and mu-RLuc/β-arrestin 2-RGFP or delta-RLuc/Gβ1-RGFP and delta-RLuc/β-arrestin 2-RGFP, were used. Cells were prepared and cultured, as described previously.[19],[23] Cells were grown in Dulbecco’s modified Eagle’s medium (DMEM)/HAMS F12 (1:1) supplemented with 10% fetal bovine serum, penicillin G (100 units/mL), streptomycin (100 μg mL^–1), L-glutamine (2 mM), fungizone (1 μg mL^–1), geneticin (G418; 200 μg mL^–1), and hygromycin B (100 μg mL^–1) in a humidified atmosphere of 5% CO2 at 37 °C. For G protein experiments, enriched plasma membrane aliquots from transfected cells were prepared by differential centrifugation; cells were detached with phosphate buffered saline (PBS)/EDTA solution (1 mM, pH 7.4 NaOH), then, after 5 min 500g centrifugation, Dounce-homogenized (30 strokes) in cold homogenization buffer (tris(hydroxymethyl)aminomethane 5 mM, EGTA 1 mM, DTT 1 mM, pH 7.4 HCl) in the presence of sucrose (0.32 M). Three following centrifugations were performed at 10 min 1000g (4 °C), and the supernatants were kept. Two 20 min 24,000g (4 °C) subsequent centrifugations (the second in the absence of sucrose) were performed for separating enriched membranes that, after discarding the supernatant, were kept in ultrapure water at −80 °C.[67] The protein concentration in membrane preparations was determined using the QPRO-BCA kit (Cyanagen Srl, Bologna, IT) and the Ensight (PerkinElmer, Waltham, USA) in the spectrophotometer mode.
(§2) Luminescence in membranes was recorded in 96-well untreated white opaque microplates, while in whole cells, it was recorded in 96-well sterile poly-D-lysine-coated white opaque microplates (PerkinElmer, Waltham, MA, USA) using the luminometer Victor 2030 (PerkinElmer, Waltham, MA, USA). For the determination of receptor/G protein interactions, membranes (3 μg of protein) prepared from cells co-expressing NOP (or mu or delta)/RLuc and Gβ1/RGFP were added to wells in DPBS. For the determination of receptor/β-arrestin 2 interactions, cells co-expressing NOP (or mu or delta)/RLuc and β-arrestin 2/RGFP were plated 24 h before the experiment in poly-D-lysine-treated plates (100,000 cells/well). The cells were prepared for the experiment substituting the medium with PBS with MgCl2 (0.5 mM) and CaCl2 (0.9 mM). Coelenterazine at a final concentration of 5 μM was injected 15 min prior to reading the cell plate. Different concentrations of ligands in 20 μL of PBS–BSA 0.01% were added and incubated 5 min before reading luminescence. […] The BRET ratio was measured 15 min after agonist injection. All experiments were performed at room temperature.
(§3) The pharmacological terminology adopted in this paper is consistent with IUPHAR recommendations.[68] All data are expressed as the mean ± sem of five independent experiments made in duplicate. […] Ligand efficacy was expressed as intrinsic activity (α), calculated as the ratio between the Emax of the ligand and that of the standard agonist. Count per second (CPS) measured for the RGFP and RLuc light emitted using 510(10) and 460(25) filters (PerkinElmer, Waltham, MA), respectively, was used to calculate the BRET ratio. All data are expressed as the stimulated BRET ratio, that is, the ratio between CPS from RGFP and RLuc in the presence of ligands minus the BRET ratio in vehicle-treated wells. […] Concentration–response curves to agonists were fitted to the classical four-parameter logistic nonlinear regression model [drawing 1]
(§4) Curves fitting were performed using PRISM 6.0 (GraphPad Software In., San Diego, USA).

[2] = biological target: T2, NOP receptor (NOP-RLuc/β-arrestin 2-RGFP) (Homo sapiens, UniProt P41146); assay: NOP/β-arrestin 2 interaction, BRET assay in whole cells; assay type: cell-based; details: for NOP/β-arrestin 2 pEC50 (CL95%): BRET, whole HEK293 cells co-expressing NOP-RLuc/β-arrestin 2-RGFP, 100,000 cells/well, room temperature, mean of five independent experiments in duplicate, 95% confidence limits; for NOP/β-arrestin 2 α ± sem (intrinsic activity): Emax of ligand / Emax of N/OFQ(1–13)-NH2, mean ± sem of five experiments in duplicate
T2 construct: expressed in transfected cells; host or cells: HEK293 (whole cells)
T2 sequence (P41146 whole entry): as above
Procedure: as §1, §2, §3, §4

Compound	BIAS FACTOR (NOP receptor)	bias factor (CL95%), NOP (NOP receptor)	NOP/β-arrestin 2 pEC50 (CL95%) [2]	other results
[Aib^11]N/OFQ-NH2 [Compound 35]	0.29	0.29 (−0.20–0.79)		
[DThr^5]N/OFQ(1–13)-NH2 [Compound 14]			inactive	NOP/G protein pEC50 (CL95%) [1]: crc incomplete
[Ala^8]N/OFQ(1–13)-NH2 (FGGFTGAAKSARK-NH2) [Compound 7]			inactive	NOP/G protein pEC50 (CL95%) [1]: Crc incomplete; NOP/G protein CR (concentration ratio) [1]: ∼1000
[AC3C^7]N/OFQ-NH2 [Compound 36]	0.40	0.40 (−0.11–0.90)		
FAGFTGARKSARK-NH2 [Compound 2, [Ala^2]N/OFQ(1–13)-NH2]			inactive	NOP/G protein pEC50 (CL95%) [1]: 6.36 (5.89–6.83); NOP/G protein α ± sem (intrinsic activity) ([1]; Emax of ligand / Emax of N/OFQ(1–13)-NH2, mean ± sem of five experiments in duplicate): 0.54 ± 0.07 ^a; NOP/G protein CR (concentration ratio) [1]: 275
C[C@H](NC(=O)CNC(=O)[C@@H](NC(=O)[C@H](Cc1ccccc1)NC(=O)CNC(=O)CNC(=O)[C@@H](N)CC1CCCCC1)[C@@H](C)O)C(=O)N[C@@H](CCCNC(=N)N)C(=O)N[C@@H](CCCCN)C(=O)N[C@@H](CO)C(=O)N[C@@H](C)C(=O)N[C@@H](CCCNC(=N)N)C(=O)N[C@@H](CCCCN)C(N)=O [Compound 22, [Cha^1]N/OFQ(1–13)-NH2]	0.20	0.20 (−0.36–0.76)		NOP/β-arrestin 2 α ± sem (intrinsic activity) [2]: 1.03 ± 0.05
[Ala^1]N/OFQ(1–13)-NH2 (AGGFTGARKSARK-NH2) [Compound 1]			inactive	NOP/G protein pEC50 (CL95%) [1]: Crc incomplete; NOP/G protein CR (concentration ratio) [1]: ∼700
C[C@H](NC(=O)CNC(=O)[C@@H](NC(=O)[C@H](Cc1ccccc1)NC(=O)CNC(=O)CNC(=O)[C@@H](N)Cc1ccccc1)[C@@H](C)O)C(=O)N[C@@H](CCCNC(=N)N)C(=O)N[C@@H](CCCCN)C(=O)N[C@@H](CO)C(=O)N[C@H](C)C(=O)N[C@@H](CCCNC(=N)N)C(=O)N[C@@H](CCCCN)C(N)=O [Compound 19, [DAla^11]N/OFQ(1–13)-NH2]	0.14	0.14 (−0.31–0.60)		
C[C@H](NC(=O)CNC(=O)[C@@H](NC(=O)[C@H](Cc1ccccc1)NC(=O)CNC(=O)CNC(=O)[C@@H](N)Cc1ccccc1)[C@@H](C)O)C(=O)N[C@@H](CCCNC(=N)N)C(=O)N[C@@H](CCCCN)C(=O)N[C@H](CO)C(=O)N[C@@H](C)C(=O)N[C@@H](CCCNC(=N)N)C(=O)N[C@@H](CCCCN)C(N)=O [Compound 18, [DSer^10]N/OFQ(1–13)-NH2]	-0.07	–0.07 (−0.52–0.39)		
[D-Phe^3]N/OFQ(1–13)-NH2 (FG[dF]FTGARKSARK-NH2; N-terminus assumed; SMILES C[C@H](NC(=O)CNC(=O)[C@@H](NC(=O)[C@H](Cc1ccccc1)NC(=O)[C@@H](Cc1ccccc1)NC(=O)CNC(=O)[C@@H](N)Cc1ccccc1)[C@@H](C)O)C(=O)N[C@@H](CCCNC(=N)N)C(=O)N[C@@H](CCCCN)C(=O)N[C@@H](CO)C(=O)N[C@@H](C)C(=O)N[C@@H](CCCNC(=N)N)C(=O)N[C@@H](CCCCN)C(N)=O) [Compound 25]			inactive	NOP/G protein pEC50 (CL95%) [1]: inactive
C[C@H](NC(=O)[C@H](CO)NC(=O)[C@H](CCCCN)NC(=O)[C@H](CCCNC(=N)N)NC(=O)[C@@H](C)NC(=O)CNC(=O)[C@@H](NC(=O)[C@H](Cc1ccccc1)NC(=O)CNC(=O)CNC(=O)[C@@H](N)Cc1ccccc1)[C@@H](C)O)C(=O)N[C@@H](CCCNC(=N)N)C(=O)N[C@@H](CCCCN)C(N)=O [Compound 15, [DAla^7]N/OFQ(1–13)-NH2]	0.21	0.21 (−0.28–0.70)		
[AC5C^11]N/OFQ-NH2 [Compound 38]	0.31	0.31 (−0.19–0.81)		
[AC5C^7]N/OFQ-NH2 [Compound 37]	0.08	0.08 (−0.41–0.58)		
C[C@H](NC(=O)CNC(=O)[C@@H](NC(=O)[C@H](Cc1ccccc1)NC(=O)CNC(=O)CNC[C@@H](N)Cc1ccccc1)[C@@H](C)O)C(=O)N[C@@H](CCCNC(=N)N)C(=O)N[C@@H](CCCCN)C(=O)N[C@@H](CO)C(=O)N[C@@H](C)C(=O)N[C@@H](CCCNC(=N)N)C(=O)N[C@@H](CCCCN)C(N)=O [Compound 30, [Phe^1ψ(CH2–NH)Gly^2]N/OFQ(1–13)-NH2] (H-[X3]GFTGARKSARK-NH2)			Inactive	
FGGWTGARKSARK-NH2 [Compound 24, [Trp^4]N/OFQ(1–13)-NH2]	0.11	0.11 (−0.43–0.65)		NOP/β-arrestin 2 α ± sem (intrinsic activity) [2]: 0.77 ± 0.03 ^a
C[C@H](NC(=O)CNC(=O)[C@@H](NC(=O)[C@H](Cc1ccccc1)NC(=O)CNC(=O)CNC(=O)[C@@H](N)Cc1ccccc1)[C@@H](C)O)C(=O)N[C@H](CCCNC(=N)N)C(=O)N[C@@H](CCCCN)C(=O)N[C@@H](CO)C(=O)N[C@@H](C)C(=O)N[C@@H](CCCNC(=N)N)C(=O)N[C@@H](CCCCN)C(N)=O [Compound 16, [DArg^8]N/OFQ(1–13)-NH2]		0.26 (−0.25–0.77)		
C[C@H](NC(=O)CNC(=O)[C@@H](NC(=O)[C@H](Cc1ccccc1)NC(=O)CNC(=O)CNC(=O)[C@@H](N)Cc1ccccc1)[C@@H](C)O)C(=O)N[C@@H](CCCNC(=N)N)C(=O)N[C@@H](CCCCN)C(=O)N[C@@H](CO)C(=O)N[C@@H](C)C(=O)N[C@H](CCCNC(=N)N)C(=O)N[C@@H](CCCCN)C(N)=O [Compound 20, [DArg^12]N/OFQ(1–13)-NH2]		0.26 (−0.19–0.71)		
C[C@H](NC(=O)CNC(=O)[C@@H](NC(=O)[C@H](Cc1ccccc1)NC(=O)CNC(=O)CNC(=O)[C@@H](N)Cc1ccccc1)[C@@H](C)O)C(=O)N[C@@H](CCCNC(=N)N)C(=O)N[C@@H](CCCCN)C(=O)N[C@@H](CO)C(=O)N[C@@H](C)C(=O)N[C@@H](CCCNC(=N)N)C(=O)N[C@H](CCCCN)C(N)=O [Compound 21, [DLys^13]N/OFQ(1–13)-NH2]	0.03	0.03 (−0.42–0.48)		

Source: paper PMC8011926 (Journal of Medicinal Chemistry, 2020)
